Patent publication US5821240A, “Pyrimido[5,4]-dipyrimidines, pharmaceuticals containing them, their use and processes for the preparation thereof” (Dr. Karl Thomae GmbH, priority 1996, dated 1998)
pIC50: −log10 of the molar value.

Tests used:
[1] = tested on: F/L-HERc cells expressing human EGF-R; assay: Inhibition of EGF-dependent proliferation of F/L-HERc cells; assay type: cell-based, murine cell line; human EGF-R; settings: EGF 20 ng/ml, 37° C., 48 hours
From the text: (§1) In this case, an interleukin-3 (IL-3)-dependent cell line of murine origin was used and was genetically modified in such a way that it expresses functional human EGF-R. Proliferation of these cells, which are called F/L-HERc, can therefore be stimulated either by murine IL-3 or by EGF (see von Ruden, T. et al. in EMBO J. 7, 2749-2756 (1988) and Pierce, J. H. et al. in Science 239, […] (1988)).
(§2) The starting material for the F/L-HERc cells was the cell line FDC-P1 whose preparation has been described by Dexter, T. M. et al. in J. Exp. Med. 152, 1036-1047 (1980). However, it is also possible as an alternative to use other growth factor-dependent cells (see, for example, Pierce, J. H. et al. in Science 239, 628-631 (1988), Shibuya, H. et al. in Cell 70, 57-67 (1992) and Alexander, W. S. et al. in EMBO J. 10, 3683-3691 (1991)). Recombinant retroviruses as described in von Ruden, T. et al., EMBO J. 7, 2749-2756 (1988) Were used for expression of the human EGF-R cDNA (see Ullrich, A. et al. in Nature 309, 418-425 (1984)), with the difference that the retroviral vector LXSN (see Miller, A. D. et al. in BioTechniques 7, 980-990 (1989)) was employed for expression of the EGF-R cDNA, and the line GP+E86 (see Markowitz, D. et al. in J. Virol. 62, 1120-1124 (1988)) was used as packaging cell.
(§3) F/L-HERc cells were cultivated in RPMI/1640 medium (BioWhittaker), supplemented with 10% fetal calf serum (FCS, Boehringer Mannheim), 2 mM glutamine (BioWhittaker), standard antibiotics and 20 ng/ml human EGF (Promega), at 37° C. and 5% CO2. To investigate the inhibitor activity of the compounds according to the invention, 1.5×10^4 cells were cultivated in the above medium (200 μl) per well in triplicates in 96-well plates, stimulating proliferation of the cells either with EGF (20 ng/ml) or with murine IL-3. The source used for IL-3 was culture supernatants from the cell line X63/0 mIL-3 (see Karasuyama, H. et al. in Eur. J. Immunol. 18, 97-104 (1988)). The compounds according to the invention were dissolved in 100% dimethyl sulphoxide (DMSO) and added in various dilutions to the cultures, with the maximum DMSO concentration being 1%. The cultures were incubated at 37° C. for 48 hours.
(§4) To determine the inhibitory activity of the compounds according to the invention, the relative cell count was measured in O.D. units using the Cell Titre 96™ AQueous Non-Radioactive Cell Proliferation Assay (Promega). The relative cell count was calculated as a percent of the control (F/L-HERc cells without inhibitor), and the concentration of active substance which inhibits the proliferation of the cells by 50% (IC50) was inferred.

[2] = tested on: F/L-HERc cells; assay: Inhibition of IL-3-dependent proliferation of F/L-HERc cells; assay type: cell-based; settings: Mus musculus, murine IL-3, 37° C., 48 hours
From the text: as §1, §2, §3, §4

## COC(=O)NC1CCN(c2ncc3ncnc(Nc4ccc(F)c(Cl)c4)c3n2)CC1 [1(1), 4-[(3-Chloro-4-fluorophenyl)amino]-6-[4-methoxycarbonylamino-1-piperidinyl]pyrimido[5,4-d]pyrimidine]
[1]
  pIC50: 7.47
[2]
  pIC50: < 5.00

## CC(C)(C)OC(=O)N1CCC(Nc2ncc3ncnc(Nc4ccc(F)c(Cl)c4)c3n2)CC1 [1(2), 4-[(3-Chloro-4-fluorophenyl)amino]-6-[1-tert-butyloxycarbonyl-4-piperidinylamino]pyrimido[5,4-d]pyrimidine]
[1]
  pIC50: 7.36
[2]
  pIC50: < 5.00

## Nc1c(Br)cc(Nc2ncnc3cnc(N4CCC(N)CC4)nc23)cc1Br [1(3), 4-[(4-Amino-3,5-dibromophenyl)amino]-6-[4-amino-1-piperidinyl]pyrimido[5,4-d]pyrimidine]
[1]
  pIC50: 7.17
[2]
  pIC50: < 6.00

## O=CNC1CCN(c2ncc3ncnc(Nc4ccc(F)c(Cl)c4)c3n2)CC1 [1(5), 4-[(3-Chloro-4-fluorophenyl)amino]-6-[4-formylamino-1-piperidinyl]pyrimido[5,4-d]pyrimidine]
[1]
  pIC50: 7.68
[2]
  pIC50: < 5.00

## NCCNc1ncc2ncnc(Nc3ccc(F)c(Cl)c3)c2n1 [1(6), 4-[(3-Chloro-4-fluorophenyl)amino]-6-[2-aminoethylamino]-pyrimido[5,4-d]pyrimidine]
[1]
  pIC50: 6.91
[2]
  pIC50: < 5.00

## NCCCNc1ncc2ncnc(Nc3ccc(F)c(Cl)c3)c2n1 [1(9), 4-[(3-Chloro-4-fluorophenyl)amino]-6-[3-aminopropylamino]pyrimido[5,4-d]pyrimidine]
[1]
  pIC50: 7.74
[2]
  pIC50: < 5.00

## NCCCCNc1ncc2ncnc(Nc3ccc(F)c(Cl)c3)c2n1 [1(10), 4-[(3-Chloro-4-fluorophenyl)amino]-6-[4-aminobutylamino]pyrimido[5,4-d]pyrimidine]
[1]
  pIC50: 7.77
[2]
  pIC50: < 5.00

## CC(N)CNc1ncc2ncnc(Nc3ccc(F)c(Cl)c3)c2n1 (stereo not shown) [1(11), 4-[(3-Chloro-4-fluorophenyl)amino]-6-[2-amino-1-propylamino]pyrimido[5,4-d]pyrimidine]
[1]
  pIC50: 7.12
[2]
  pIC50: < 5.00

## CN1CCCN(c2ncc3ncnc(Nc4ccc(F)c(Cl)c4)c3n2)CC1 [1(12), 4-[(3-Chloro-4-fluorophenyl)amino]-6-[4-methyl-1-homopiperazinyl]pyrimido[5,4-d]pyrimidine]
[1]
  pIC50: 6.43
[2]
  pIC50: < 5.00

## Fc1ccc(Nc2ncnc3cnc(N4CCCNCC4)nc23)cc1Cl [1(13), 4-[(3-Chloro-4-fluorophenyl)amino]-6-[1-homopiperazinyl]-pyrimido[5,4-d]pyrimidine]
[1]
  pIC50: 6.82
[2]
  pIC50: < 5.00

## Nc1ccc(CNc2ncc3ncnc(Nc4ccc(F)c(Cl)c4)c3n2)cc1 [1(14), 4-[(3-Chloro-4-fluorophenyl)amino]-6-[4-aminobenzylamino]pyrimido[5,4-d]pyrimidine]
[1]
  pIC50: 7.55
[2]
  pIC50: < 5.00

## COC(=O)[C@H]1CC[C@H](Nc2ncc3ncnc(Nc4cc(Cl)c(N)c(Cl)c4)c3n2)CC1 [1(15), 4-[(4-Amino-3,5-dichlorophenyl)amino]-6-[(trans-4-methoxycarbonylcyclohexyl)amino]pyrimido[5,4-d]pyrimidine]
[1]
  pIC50: 7.82
[2]
  pIC50: < 5.00

## CCN(CCO)c1ncc2ncnc(Nc3ccc(F)c(Cl)c3)c2n1 [1(23), 4-[(3-Chloro-4-fluorophenyl)amino]-6-[N-ethyl-N-(2-hydroxyethyl)amino]pyrimido[5,4-d]pyrimidine]
[1]
  pIC50: 7.20
[2]
  pIC50: < 6.00

## Fc1ccc(Nc2ncnc3cnc(NCC45CCN(CC4)CC5)nc23)cc1Cl [1(24), 4-[(3-Chloro-4-fluorophenyl)amino]-6-[4-quinuclidinylmethylamino]pyrimido[5,4-d]pyrimidine]
[1]
  pIC50: 8.05
[2]
  pIC50: < 6.00

## COC(CNc1ncc2ncnc(Nc3ccc(F)c(Cl)c3)c2n1)OC [1(25), 4-[(3-Chloro-4-fluorophenyl)amino]-6-[2,2-dimethoxyethylamino]pyrimido[5,4-d]pyrimidine]
[1]
  pIC50: 7.55
[2]
  pIC50: < 4.70

## CC(C)(C)OC(=O)N1CCC(CNc2ncc3ncnc(Nc4ccc(F)c(Cl)c4)c3n2)CC1 [1(26), 4-[(3-Chloro-4-fluorophenyl)amino]-6-[(1-tert-butyloxycarbonyl-4-piperidinyl)methylamino]pyrimido[5,4-d]pyrimidine]
[1]
  pIC50: 6.70
[2]
  pIC50: < 4.70

## CC(C)(N)CNc1ncc2ncnc(Nc3ccc(F)c(Cl)c3)c2n1 [1(27), 4-[(3-Chloro-4-fluorophenyl)amino]-6-[2-amino-2-methyl-1-propylamino]pyrimido[5,4-d]pyrimidine]
[1]
  pIC50: 7.40
[2]
  pIC50: < 5.00

## CN1CCC(N(C)c2ncc3ncnc(Nc4ccc(F)c(Cl)c4)c3n2)CC1 [1(28), 4-[(3-Chloro-4-fluorophenyl)amino]-6-[N-methyl-N-(1-methyl-4-piperidinyl)amino]pyrimido[5,4-d]pyrimidine]
[1]
  pIC50: 7.85
[2]
  pIC50: 5.00

## Fc1ccc(Nc2ncnc3cnc(NCC4CCNCC4)nc23)cc1Cl [1(29), 4-[(3-Chloro-4-fluorophenyl)amino]-6-[4-piperidinylmethylamino]pyrimido[5,4-d]pyrimidine]
[1]
  pIC50: 7.89
[2]
  pIC50: < 4.70

## Fc1ccc(Nc2ncnc3cnc(N4CCC(N5CCOCC5)CC4)nc23)cc1Cl [1(30), 4-[(3-Chloro-4-fluorophenyl)amino]-6-[4-(morpholino)-1-Piperidinyl]pyrimido[5,4-d]pyrimidine]
[1]
  pIC50: 6.90
[2]
  pIC50: < 4.70

## Fc1ccc(Nc2ncnc3cnc(N4CCC(N5CCCC5)CC4)nc23)cc1Cl [1(31), 4-[(3-Chloro-4-fluorophenyl)amino]-6-[4-(1-pyrrolidinyl)-1-piperidinyl]pyrimido[5,4-d]pyrimidine]
[1]
  pIC50: 6.99
[2]
  pIC50: 5.00

## COc1cccc(N2CCN(c3ncc4ncnc(Nc5ccc(F)c(Cl)c5)c4n3)CC2)c1 [1(32), 4-[(3-Chloro-4-fluorophenyl)amino]-6-[4-(3-methoxyphenyl)-1-piperazinyl]pyrimido[5,4-d]pyrimidine]
[1]
  pIC50: < 6.00
[2]
  pIC50: < 4.70

## COc1ccccc1N1CCN(c2ncc3ncnc(Nc4ccc(F)c(Cl)c4)c3n2)CC1 [1(33), 4-[(3-Chloro-4-fluorophenyl)amino]-6-[4-(2-methoxyphenyl)-1-piperazinyl]pyrimido[5,4-d]pyrimidine]
[1]
  pIC50: < 6.00
[2]
  pIC50: < 4.70

## CC(C)(C)OC(=O)N1CCN(CCNc2ncc3ncnc(Nc4ccc(F)c(Cl)c4)c3n2)CC1 [1(35), 4-[(3-Chloro-4-fluorophenyl)amino]-6-[2-(4-tert-butyloxycarbonyl-1-piperazinyl)ethylamino]pyrimido[5,4-d]pyrimidine]
[1]
  pIC50: 6.62
[2]
  pIC50: < 6.00

## CC1CC(c2ccc(O)cc2)CN1c1ncc2ncnc(Nc3ccc(F)c(Cl)c3)c2n1 (stereo not shown) [1(36), 4-[(3-Chloro-4-fluorophenyl)amino]-6-[4-(4-hydroxyphenyl)-2-methyl-1-pyrrolidinyl]pyrimido[5,4-d]pyrimidine]
[1]
  pIC50: 6.85
[2]
  pIC50: < 6.00

## NCC1CCCC(CNc2ncc3ncnc(Nc4ccc(F)c(Cl)c4)c3n2)C1 (stereo not shown) [1(38), 4-[(3-Chloro-4-fluorophenyl)amino]-6-[3-(aminomethyl)cyclohexylmethylamino]pyrimido[5,4-d]pyrimidine]
[1]
  pIC50: 7.29
[2]
  pIC50: < 6.00
